Measured values as given in patent publication US8476280B2, “Compositions and methods for combating lower urinary tract dysfunctions with delta opioid receptor agonists” (Versi Group, LLC, priority 2002, dated 2013).

Columns and labels:
healthy conscious rats = experiment: Cystometric parameters in healthy conscious rats; assay type: in vivo, rat; conditions: for inhibition of bladder contractions (micturition pressure): intravenous administration, recorded 90 minutes after injection; for frequency of bladder contractions / pressure of bladder contractions: oral administration via stomach cannula, recorded 120 minutes after administration
Procedure: Male rats weighing 200 to 250 grams were used. The rats were housed with free access to food and maintained on forced 12 hours alternating light-dark cycle at 22-24° C. for at least one week, except during performance of the experiment.
The rats were anesthetized with pentobarbital, 65 mg/kg i.p. and placed in a supine position. An approximately 10 mm long midline incision was made in the shaved and cleaned abdominal wall. The urinary bladder was freed from adhering tissues, emptied and then cannulated, via an incision at the dome with a polyethylene cannula (PE50), which was permanently sutured in place. The cannula was exteriorized through a subcutaneous tunnel in the retroscapular area, where it was connected with a plastic adapter to avoid the risk of removal by the rats. For intravenous (i.v.) injection of test compounds, a polyethylene tubing (PE50) was inserted into the jugular vein and exteriorized in the retroscapular area. Since cystometrographic parameters have been reported to be influenced by the time elapsed after catheter implantation, the rats were treated with 1 mg/kg Penicilline G, intramuscularly, to prevent infection and allowed to rest 3 days after implantation and before testing commenced.
For oral administration of test compounds, a polyethylene tube (PE50) was inserted into the stomach and was permanently sutured in place. The cannula was exteriorized through a subcutaneous tunnel in the retroscapular area, where it was connected with a plastic adapter to avoid the risk of removal by the rats.
On the day of the experiments, the rats were placed in Bollman's cages, the free tip of the bladder catheter was connected through a T-shaped tube to a pressure transducer (Grass PT300 or Gould P23) to record bladder pressure and to a peristaltic pump for continuous infusion, at a constant rate of […] of saline solution into the urinary bladder. The intraluminal pressure signal during infusion was continuously recorded. Two urodynamic parameters were evaluated: micturition pressure and interval between micturition that equates to volume capacity before detrusor contraction occurs (decrease in frequency of contractions). Micturition pressure is defined as the maximal intravesical pressure induced by the contraction of detrusor during micturition. Data was calculated as the mean of testing results for several animals at each dosage. The drug effects were expressed as a percent relative to activity of the control data, which was set at 100%.
Infusion was commenced with saline solution to determine activity in rats without test compounds to be used as the control baseline. Saline solution infusion was interrupted and the test compounds were administered. At time points 90 minutes after intravenous administration and 120 minutes after oral drug administration, cystometrograms were recorded in each animal and the mean values of the recorded cystometrographic parameters were calculated.

[1] = test system: rats experiencing partial urethral restriction; experiment: Cystometric parameters in rats experiencing partial urethral restriction; assay type: in vivo, rat; conditions: oral administration of 10 mg/kg
Text: Male rats weighing 200 to 250 grams were used. The method to produce bladder outlet obstructions thereby producing partial urethral restriction is essentially that reported by Malmgren et al, J. Urol. 137:1291-1294, the disclosure of which is hereby incorporated herein by reference. Following anesthetic induction, the ventral abdominal wall and perineum were shaved and cleaned with betadine. A lower midline abdominal incision was made, and the bladder and proximal urethra were identified. A plastic rod with a ˜1 mm outer diameter was placed parallel to the urethra, and a silk ligature was tied around the urethra and the plastic rod. […]
On the day of testing, the bladder catheter was connected through a T-shaped tube to a pressure transducer (Grass PT300 or Gould P23) to record bladder pressure isovolumetrically and to a peristaltic pump for continuous infusion, at a constant rate of 0.1 ml/min, of saline solution into the urinary bladder. The pressure signal during infusion was continuously recorded.
Two urodynamic parameters were evaluated in the test rats: micturition pressure and interval between voiding that equates to volume capacity before detrusor contraction occurs (decrease in frequency of contractions). Changes in bladder activity were recorded and expressed as pressure or volume over time.

Row | Structure (SMILES) | inhibition of bladder contractions (micturition pressure) (healthy conscious rats) | frequency of bladder contractions (healthy conscious rats) | pressure of bladder contractions (healthy conscious rats) | frequency and intensity of pressure contractions ([1]; three test rats) | volume capacity (bladder capacity before voiding) ([1]; trace 1d)
1 | Cc1ccccc1[C@H](c1cccc(O)c1)N1C[C@@H](C)NC[C@@H]1C [Compound 10, 3-((S)-((2S,5R)-2,5-Dimethyl-1-piperazinyl)(2-methylphenyl)methyl)phenol] | effected an inhibition of bladder contractions | – | – | – | –
2 | C[C@@H]1CN(Cc2ccc(C(=O)O)cc2)[C@@H](C)CN1[C@H](c1ccc(S(=O)(=O)N(C)C)cc1)c1cccc(O)c1 [Compound 11, 4-{4-[(R)-(4-dimethylsulfamoyl-phenyl)-(3-hydroxyphenyl)methyl]-(2S,5R)-dimethylpiperazin-1-ylmethyl}benzoic acid] | – | a decrease in the frequency of bladder contractions | a decrease in the pressure of these contractions | – | –
3 | C=CCN1C[C@H](C)N(C(c2ccccc2)c2cccc(C(=O)N(C)c3cccc(F)c3)c2)C[C@H]1C (stereo partly drawn) [Compound 4, 3-((alpha-S)-alpha-((2S,5R)-4-Allyl-2,5-dimethyl-1-piperazinyl)benzyl)-N-(3-fluorophenyl)-N-methylbenzamide] | effected an inhibition of bladder contractions | – | – | – | –
4 | CCN(CC)C(=O)c1ccc(C(c2ccccc2)N2C[C@@H](C)N(Cc3ccc(F)cc3)C[C@@H]2C)cc1 (stereo partly drawn) [Compound 2, 4-((alpha-S)-alpha-((2S,5R)-2,5-Dimethyl-4-(4-fluorobenzyl)-1-piperazinyl)benzyl)-N,N-diethylbenzamide] | effected an inhibition of bladder contractions | – | – | – | –
5 | CCN(CC)C(=O)c1ccc(C(c2ccccc2)N2C[C@@H](C)N(Cc3cccc(F)c3)C[C@@H]2C)cc1 (stereo partly drawn) [Compound 1, 4-((alpha-S)-alpha-((2S,5R)-2,5-Dimethyl-4-(3-fluorobenzyl)-1-piperazinyl)benzyl)-N,N-diethylbenzamide] | effected an inhibition of bladder contractions | a decrease in the frequency of bladder contractions | a decrease in the pressure of these contractions | marked improvement in both frequency and intensity of pressure contractions (reduced) | volume capacity increased
6 | C=CCN1C[C@H](C)N(C(c2ccc(C(=O)N(CC)CC)cc2)c2cccc(OCC(=O)O)c2)C[C@H]1C (stereo partly drawn) [Compound 3, 3-((alpha-R)-alpha-((2S,5R)-4-allyl-2,5-dimethyl-1-piperazinyl)-4-(diethylaminocarbonyl)benzyl)phenoxyacetic acid] | effected an inhibition of bladder contractions | – | – | – | –
